Reference: patent US6110897A, “Antiinflammatory cell adhesion inhibitors” (Glycorex AB, priority 1997, dated 2000)
Read-outs that look alike come from different tables or passages of the source.

How the values were obtained:
[1] = target: T1, P-selectin-IgG fusion protein (Homo sapiens, UniProt P16109); assay: Inhibition of HL60 cell adhesion to recombinant P-selectin-IgG fusion protein; assay type: cell-based; details: for IC50: concentration to block adhesion of 50% of HL60 cells compared with negative control
T1 construct: the lectin-like domain, the EGF repeat domain and six (E-selectin) and two (P-selectin) of the complement regulatory-like domains; made in house; host or cells: COS cells (DEAE/dextran plasmid transfection; culture supernatant; genetic constructs from B. Seed, Massachusetts General Hospital)
T1 sequence (P16109 with tags, fused parts or gaps limits assumed): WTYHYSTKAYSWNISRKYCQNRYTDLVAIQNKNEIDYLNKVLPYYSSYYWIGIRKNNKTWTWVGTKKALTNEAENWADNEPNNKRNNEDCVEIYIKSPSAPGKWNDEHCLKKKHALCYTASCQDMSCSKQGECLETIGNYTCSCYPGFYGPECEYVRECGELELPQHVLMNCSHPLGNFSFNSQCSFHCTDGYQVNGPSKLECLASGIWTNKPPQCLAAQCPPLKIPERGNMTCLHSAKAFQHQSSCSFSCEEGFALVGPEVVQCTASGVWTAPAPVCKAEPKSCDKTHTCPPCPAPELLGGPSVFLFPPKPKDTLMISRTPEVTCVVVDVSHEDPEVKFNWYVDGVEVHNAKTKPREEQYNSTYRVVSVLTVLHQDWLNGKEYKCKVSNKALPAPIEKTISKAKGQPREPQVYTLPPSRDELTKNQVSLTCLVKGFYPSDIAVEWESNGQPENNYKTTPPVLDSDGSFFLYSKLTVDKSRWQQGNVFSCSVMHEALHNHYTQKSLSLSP
Protocol: (§1) These recombinant proteins contain the signal sequence, the lectin-like domain, the EGF (epidermal growth factor) repeat domain and six (E-selectin) and two (P-selectin) of the CR-like (complement regulatory) domains. […] Adhesion of labelled HL60 tumor cells was quantitatively measured in a cytofluoro-meter. The specific cell binding in the presence of inhibitors (I) was calculated compared with nonspecific binding to the CD4-IgG fusion protein. […] Genetic constructs for expression of extracellular portions of the human selectins E and P, joined to human immunoglobulin heavy chain hinge, CH2 and CH3 regions were obtained from B. Seed, Massachusetts General Hospital, Boston, U.S.A. […] CD4-IgG served as a negative control. Recombinant proteins were expressed as soluble proteins after DEAE/dextran facilitated plasmid DNA trans-fection into COS cells according to standard procedures. […] After washing with PBS, plates were blocked for 0.5 h with 150 μl/well of 1% BSA in PBS. […] After one PBS wash, 40 μl/well binding buffer (50 mM Hepes, pH 7.5, 100 mM NaCl, 100 μM MgCl2. 100 μM MnCl2, 100 μM CaCl2, 1 mg/ml BSA) were added together with test compounds or antibodies (see below). Parallel to the preparation of the plates, HL60 cells, grown in DMEM medium with 20% FCS, were washed two times with PBS before incubation for 20 min in Fc-receptor blocking buffer at RT. […] The amount of bound cells was quantitated in a cytofluorometer (CytoFluor 2300, Millipore, Bedford, U.S.A.). Specific cell binding was calculated by subtraction of the signals in wells coated with CD4-IgG (nonspecific binding) from the signals in wells coated with selectin-IgG. […] IC50 values were determined according to the four parameter logistics model. Each IC50 determination was repeated on another day at least once.

[2] = test system: E-selectin-IgG fusion protein; assay: Inhibition of HL60 cell adhesion to recombinant E-selectin-IgG fusion protein; assay type: cell-based, human
Protocol: as §1

E- and P-selectins = assay: Selectin cell adhesion assays, E- and P-selectin taken together (statements in words); assay type: cell-based, human; details: removal of the acetamido or acetyl group, compared with II-1
Source text: Primary assays for investigation of the action of compounds (I) on cell adhesion to recombinant soluble selectin fusion proteins:
The preparation of soluble E- and P-selectin-IgG fusion proteins, composed of the extracellular portions of human selectins E and P and the human immunoglobulin (IgG) heavy chain hinge, CH2 and CH3 regions, has been described in Cell 1991, 67, 35. These recombinant proteins contain the signal sequence, the lectin-like domain, the EGF (epidermal growth factor) repeat domain and six (E-selectin) and two (P-selectin) of the CR-like (complement regulatory) domains. […] Adhesion of labelled HL60 tumor cells was quantitatively measured in a cytofluoro-meter. The specific cell binding in the presence of inhibitors (I) was calculated compared with nonspecific binding to the CD4-IgG fusion protein.
The activity of compounds (I), (II) and (III) was measured in adhesion assays as the inhibition of the binding of promyelocytic leukemia HL60 cells (ATCC CRL 1964) to recombinant solid phase bound selectin-fusion proteins. […] Recombinant proteins were expressed as soluble proteins after DEAE/dextran facilitated plasmid DNA trans-fection into COS cells according to standard procedures. […] The amount of bound cells was quantitated in a cytofluorometer (CytoFluor 2300, Millipore, Bedford, U.S.A.). […]

E-selectin-Ig = details: cited from earlier work
[3] = concentration to block adhesion of 50% of HL60 cells compared with negative control; read-out: E-selectin IC50

## CC(=O)NC1C(O)CC(OC2C(O)C(CO)OC(OC3C(CO)OC(OCCCCCCN)C(NC(C)=O)C3OC3OC(C)C(O)C(O)C3O)C2O)(C(=O)O)OC1C(O)C(O)CO (centres unmarked) [II-1]
[1]
  IC50: 2000 µM
[2]; [3]
  IC50: 1000 µM

## CC1OC(OC2C(N)C(OCCCCCCN)OC(CO)C2OC2OC(CO)C(O)C(OC3(C(=O)O)CC(O)C(N)C(C(O)C(O)CO)O3)C2O)C(O)C(O)C1O [Compound I-1, 2-Amino-4-O-[3-O-[5-amino-3,5-dideoxy-D-glycero-α-D-galactononulopyranosyl]-β-D-galactopyranosyl]-1-[6-aminohexyl]-2-deoxy-3-O-[α-L-fucopyranosyl]-β-D-glycopyranose]
[1]
  IC50: 160 µM
[1]; fully deacetylated I-1 compared with II-1
  enhancement of binding affinity to P-selectin (factor): 12.5
[2]; I-1 over reference compound II-1
  improvement of the E-selectin IC50 over II-1: significant improvement
[2]; read-out: E-selectin IC50; concentration to block adhesion of 50% of HL60 cells compared with negative control
  IC50: 270 µM

## CC(=O)NC1C(OCCCCCCN)OC(CO)C(OC2OC(CO)C(O)C(OC3(C(=O)O)CC(O)C(N)C(C(O)C(O)CO)O3)C2O)C1OC1OC(C)C(O)C(O)C1O (centres unmarked) [III-2]
[1]
  IC50: 1000 µM
E- and P-selectins
  inhibitory potency relative to II-1: only slightly improved
[2]; [3]
  IC50: 900 µM

## CC(=O)NC1C(O)CC(OC2C(O)C(CO)OC(OC3C(CO)OC(O)C(N)C3OC3OC(C)C(O)C(O)C3O)C2O)(C(=O)O)OC1C(O)C(O)CO (centres unmarked) [sLe^X (GlcNH2)]
E-selectin-Ig; cell-free ELISA, E-selectin-Ig competitive binding
  enhanced inhibitory potency compared to sLe^X (fold): 5 fold
E-selectin-Ig; cell-free system, read-out: IC50, E-selectin-Ig competitive binding
  IC50: 77 µM

## CC(=O)NC1C(OCCCCCCN)OC(CO)C(OC2OC(CO)C(O)C(OC3(C(=O)O)CC(O)CC(C(O)C(O)CO)O3)C2O)C1OC1OC(C)C(O)C(O)C1O (centres unmarked) [III-1]
[1]
  IC50: 700 µM
E- and P-selectins
  inhibitory potency relative to II-1: only slightly improved
[2]; [3]
  IC50: 700 µM
